{"source": "patent EP2987533B1", "about": "“7-substituted piperazin-1-yl fluoroquinolone compounds, their use in the treatment of cancer, pharmaceutical compositions and a method for preparation” (priority 2014, dated 2016)", "experiment_in_all_cases": "NCI five-dose SRB growth assay", "type_in_all_cases": "cell-based", "key": {"CCRF-CEM": {"tested_on": "CCRF-CEM", "conditions": "Homo sapiens; CCRF-CEM (Leukemia), 48 h"}, "A549/ATCC": {"tested_on": "A549/ATCC", "conditions": "Homo sapiens; A549/ATCC (Non-Small Cell Lung Cancer), 48 h"}, "HOP-62": {"tested_on": "HOP-62", "conditions": "Homo sapiens; HOP-62 (Non-Small Cell Lung Cancer), 48 h"}, "NCI-H226": {"tested_on": "NCI-H226", "conditions": "Homo sapiens; NCI-H226 (Non-Small Cell Lung Cancer), 48 h"}, "HOP-92": {"tested_on": "HOP-92", "conditions": "Homo sapiens; HOP-92 (Non-Small Cell Lung Cancer), 48 h"}, "NCI-H23": {"tested_on": "NCI-H23", "conditions": "Homo sapiens; NCI-H23 (Non-Small Cell Lung Cancer), 48 h"}, "NCI-H322M": {"tested_on": "NCI-H322M", "conditions": "Homo sapiens; NCI-H322M (Non-Small Cell Lung Cancer), 48 h"}, "NCI-H522": {"tested_on": "NCI-H522", "conditions": "Homo sapiens; NCI-H522 (Non-Small Cell Lung Cancer), 48 h"}, "HCC-2998": {"tested_on": "HCC-2998", "conditions": "Homo sapiens; HCC-2998 (Colon Cancer), 48 h"}, "HCT-116": {"tested_on": "HCT-116", "conditions": "Homo sapiens; HCT-116 (Colon Cancer), 48 h"}, "HCT-15": {"tested_on": "HCT-15", "conditions": "Homo sapiens; HCT-15 (Colon Cancer), 48 h"}, "SW-620": {"tested_on": "SW-620", "conditions": "Homo sapiens; SW-620 (Colon Cancer), 48 h"}, "SF-268": {"tested_on": "SF-268", "conditions": "Homo sapiens; SF-268 (CNS Cancer), 48 h"}, "SNB-75": {"tested_on": "SNB-75", "conditions": "Homo sapiens; SNB-75 (CNS Cancer), 48 h"}, "U251": {"tested_on": "U251", "conditions": "Homo sapiens, U-251; U251 (CNS Cancer), 48 h"}, "LOX IMVI": {"tested_on": "LOX IMVI", "conditions": "Homo sapiens; LOX IMVI (Melanoma), 48 h"}, "M14": {"tested_on": "M14", "conditions": "Homo sapiens; M14 (Melanoma), 48 h"}, "UACC-257": {"tested_on": "UACC-257", "conditions": "Homo sapiens; UACC-257 (Melanoma), 48 h"}, "UACC-62": {"tested_on": "UACC-62", "conditions": "Homo sapiens; UACC-62 (Melanoma), 48 h"}, "OVCAR-8": {"tested_on": "OVCAR-8", "conditions": "Homo sapiens; OVCAR-8 (Ovarian Cancer), 48 h"}, "NCI/ADR-RES": {"tested_on": "NCI/ADR-RES", "conditions": "Homo sapiens; NCI/ADR-RES (Ovarian Cancer), 48 h"}, "SK-OV-3": {"tested_on": "SK-OV-3", "conditions": "Homo sapiens; SK-OV-3 (Ovarian Cancer), 48 h"}, "786-0": {"tested_on": "786-0", "conditions": "Homo sapiens; 786-0 (Renal Cancer), 48 h"}, "ACHN": {"tested_on": "ACHN", "conditions": "Homo sapiens; ACHN (Renal Cancer), 48 h"}, "RXF 393": {"tested_on": "RXF 393", "conditions": "Homo sapiens; RXF 393 (Renal Cancer), 48 h"}, "SN12C": {"tested_on": "SN12C", "conditions": "Homo sapiens; SN12C (Renal Cancer), 48 h"}, "UO-31": {"tested_on": "UO-31", "conditions": "Homo sapiens; UO-31 (Renal Cancer), 48 h"}, "DU-145": {"tested_on": "DU-145", "conditions": "Homo sapiens; DU-145 (Prostate Cancer), 48 h"}, "MCF7": {"tested_on": "MCF7", "conditions": "Homo sapiens; MCF7 (Breast Cancer), 48 h"}, "HS 578T": {"tested_on": "HS 578T", "conditions": "Homo sapiens; HS 578T (Breast Cancer), 48 h"}, "BT-549": {"tested_on": "BT-549", "conditions": "Homo sapiens; BT-549 (Breast Cancer), 48 h"}, "MDA-MB-468": {"tested_on": "MDA-MB-468", "conditions": "Homo sapiens; MDA-MB-468 (Breast Cancer), 48 h"}, "HL-60(TB)": {"tested_on": "HL-60(TB)", "conditions": "Homo sapiens; HL-60(TB) (Leukemia), 48 h"}, "K-562": {"tested_on": "K-562", "conditions": "Homo sapiens, K562; K-562 (Leukemia), 48 h"}, "MOLT-4": {"tested_on": "MOLT-4", "conditions": "Homo sapiens; MOLT-4 (Leukemia), 48 h"}, "MALME-3M": {"tested_on": "MALME-3M", "conditions": "Homo sapiens; MALME-3M (Melanoma), 48 h"}, "MDA-MB-435": {"tested_on": "MDA-MB-435", "conditions": "Homo sapiens; MDA-MB-435 (Melanoma), 48 h"}, "SK-MEL-2": {"tested_on": "SK-MEL-2", "conditions": "Homo sapiens; SK-MEL-2 (Melanoma), 48 h"}, "PC-3": {"tested_on": "PC-3", "conditions": "Homo sapiens; PC-3 (Prostate Cancer), 48 h"}}, "data": [{"smiles": "Cc1cc(C)c(S(=O)(=O)N2CCN(c3cc4c(cc3F)c(=O)c(C(=O)O)cn4C3CC3)CC2)c(C)c1", "note": "[Compound 6b]", "values": [{"measurement": "GI50", "setting": "CCRF-CEM", "value": 2800, "unit": "nM"}, {"measurement": "GI50", "setting": "A549/ATCC", "value": 2230, "unit": "nM"}, {"measurement": "GI50", "setting": "HOP-62", "value": 3650, "unit": "nM"}, {"measurement": "GI50", "setting": "NCI-H226", "value": 1230, "unit": "nM"}, {"measurement": "GI50", "setting": "HOP-92", "value": 1520, "unit": "nM"}, {"measurement": "GI50", "setting": "NCI-H23", "value": 3410, "unit": "nM"}, {"measurement": "GI50", "setting": "NCI-H322M", "value": 5190, "unit": "nM"}, {"measurement": "GI50", "setting": "NCI-H522", "value": 2800, "unit": "nM"}, {"measurement": "GI50", "setting": "HCC-2998", "value": 5370, "unit": "nM"}, {"measurement": "GI50", "setting": "HCT-116", "value": 2980, "unit": "nM"}, {"measurement": "GI50", "setting": "HCT-15", "value": 2550, "unit": "nM"}, {"measurement": "GI50", "setting": "SW-620", "value": 3400, "unit": "nM"}, {"measurement": "GI50", "setting": "SF-268", "value": 3960, "unit": "nM"}, {"measurement": "GI50", "setting": "SNB-75", "value": 2230, "unit": "nM"}, {"measurement": "GI50", "setting": "U251", "value": 2890, "unit": "nM"}, {"measurement": "GI50", "setting": "LOX IMVI", "value": 1420, "unit": "nM"}, {"measurement": "GI50", "setting": "M14", "value": 4690, "unit": "nM"}, {"measurement": "GI50", "setting": "UACC-257", "value": "> 100000", "unit": "nM"}, {"measurement": "GI50", "setting": "UACC-62", "value": 2430, "unit": "nM"}, {"measurement": "GI50", "setting": "OVCAR-8", "value": 2870, "unit": "nM"}, {"measurement": "GI50", "setting": "NCI/ADR-RES", "value": 3290, "unit": "nM"}, {"measurement": "GI50", "setting": "SK-OV-3", "value": 3020, "unit": "nM"}, {"measurement": "GI50", "setting": "786-0", "value": 4080, "unit": "nM"}, {"measurement": "GI50", "setting": "ACHN", "value": 2460, "unit": "nM"}, {"measurement": "GI50", "setting": "RXF 393", "value": 2410, "unit": "nM"}, {"measurement": "GI50", "setting": "SN12C", "value": 2610, "unit": "nM"}, {"measurement": "GI50", "setting": "UO-31", "value": 1960, "unit": "nM"}, {"measurement": "GI50", "setting": "DU-145", "value": 3400, "unit": "nM"}, {"measurement": "GI50", "setting": "MCF7", "value": 2590, "unit": "nM"}, {"measurement": "GI50", "setting": "HS 578T", "value": 2400, "unit": "nM"}, {"measurement": "GI50", "setting": "BT-549", "value": 3340, "unit": "nM"}, {"measurement": "GI50", "setting": "MDA-MB-468", "value": 1970, "unit": "nM"}]}, {"smiles": "CCn1cc(C(=O)O)c(=O)c2cc(F)c(N3CCN(S(=O)(=O)c4ccc(Cl)cc4)CC3)cc21", "note": "[Compound 1a]", "values": [{"measurement": "GI50", "setting": "CCRF-CEM", "value": 2930, "unit": "nM"}, {"measurement": "GI50", "setting": "HL-60(TB)", "value": 2180, "unit": "nM"}, {"measurement": "GI50", "setting": "K-562", "value": 2910, "unit": "nM"}, {"measurement": "GI50", "setting": "MOLT-4", "value": 3830, "unit": "nM"}, {"measurement": "GI50", "setting": "A549/ATCC", "value": 2810, "unit": "nM"}, {"measurement": "GI50", "setting": "HOP-62", "value": 4470, "unit": "nM"}, {"measurement": "GI50", "setting": "NCI-H226", "value": 3020, "unit": "nM"}, {"measurement": "GI50", "setting": "NCI-H23", "value": 2670, "unit": "nM"}, {"measurement": "GI50", "setting": "NCI-H522", "value": 1730, "unit": "nM"}, {"measurement": "GI50", "setting": "HCC-2998", "value": 4100, "unit": "nM"}, {"measurement": "GI50", "setting": "HCT-116", "value": 3180, "unit": "nM"}, {"measurement": "GI50", "setting": "HCT-15", "value": 3620, "unit": "nM"}, {"measurement": "GI50", "setting": "SW-620", "value": 3430, "unit": "nM"}, {"measurement": "GI50", "setting": "SF-268", "value": 3850, "unit": "nM"}, {"measurement": "GI50", "setting": "SNB-75", "value": 2600, "unit": "nM"}, {"measurement": "GI50", "setting": "U251", "value": 3100, "unit": "nM"}, {"measurement": "GI50", "setting": "LOX IMVI", "value": 2400, "unit": "nM"}, {"measurement": "GI50", "setting": "MALME-3M", "value": 1990, "unit": "nM"}, {"measurement": "GI50", "setting": "M14", "value": 2850, "unit": "nM"}, {"measurement": "GI50", "setting": "MDA-MB-435", "value": 2470, "unit": "nM"}, {"measurement": "GI50", "setting": "SK-MEL-2", "value": 2570, "unit": "nM"}, {"measurement": "GI50", "setting": "UACC-257", "value": 2160, "unit": "nM"}, {"measurement": "GI50", "setting": "UACC-62", "value": 2020, "unit": "nM"}, {"measurement": "GI50", "setting": "OVCAR-8", "value": 2800, "unit": "nM"}, {"measurement": "GI50", "setting": "NCI/ADR-RES", "value": 2980, "unit": "nM"}, {"measurement": "GI50", "setting": "SK-OV-3", "value": 3280, "unit": "nM"}, {"measurement": "GI50", "setting": "786-0", "value": 3770, "unit": "nM"}, {"measurement": "GI50", "setting": "ACHN", "value": 3090, "unit": "nM"}, {"measurement": "GI50", "setting": "RXF 393", "value": 3320, "unit": "nM"}, {"measurement": "GI50", "setting": "SN12C", "value": 2920, "unit": "nM"}, {"measurement": "GI50", "setting": "UO-31", "value": 2070, "unit": "nM"}, {"measurement": "GI50", "setting": "PC-3", "value": 2310, "unit": "nM"}, {"measurement": "GI50", "setting": "DU-145", "value": 4110, "unit": "nM"}, {"measurement": "GI50", "setting": "MCF7", "value": 2970, "unit": "nM"}, {"measurement": "GI50", "setting": "HS 578T", "value": 4520, "unit": "nM"}, {"measurement": "GI50", "setting": "BT-549", "value": 2440, "unit": "nM"}, {"measurement": "GI50", "setting": "MDA-MB-468", "value": 2100, "unit": "nM"}]}]}
